The results in this text go back to the NIST ThermoML archive (doi:10.1016/j.jct.2018.12.021).

Molecules are shown by their SMILES. ± gives the expanded uncertainty stated by the source.

The nature of data set [1]: mn = molality of the nth substance listed, in mol/kg. The settings on record: 303.15 K, Ring tensiometer, m2 = 0.
For data set [2] the following is noted: for Normal melting temperature: Crystal, DTA.

As to `O` [water] + CCCCCCCCCCCC[n+]1cscc1C.[Br-], in data set [1], the surface tension liquid-gas – broadly, the force per length acting along the surface – turned out to be 71.14 ± 2.3 mN/m. Turning to `CCCCCCCCCCCC[n+]1ccsc1.[Br-]` [N-dodecylthiazolium bromide], in data set [2], the Normal melting temperature was determined as 67 ± 0.7 °C. Consider `O` [water], for which the surface tension liquid-gas in data set [2] (303.15 K, Liquid, Ring tensiometer) is listed as 71.14 ± 2.3 mN/m. Turning to `O` [water] + CCCCCCCCCCCC[n+]1ccsc1.[Br-], the surface tension liquid-gas in data set [1] is 71.14 ± 2.3 mN/m. Regarding `CCCCCCCCCCCC[n+]1cscc1C.[Br-]` [N-dodecyl-4-methylthiazolium bromide], the Normal melting temperature in data set [2] came to 103.16 ± 0.7 °C.
